{"source": "patent US20250129033A1", "about": "“METAP2 INHIBITORS AND USES THEREOF” (Yissum Research Development Company of the Hebrew …, priority 2022, published 2025)", "key": {"MetAP2": {"target": "MetAP2 (Homo sapiens, UniProt P50579)", "sequence (P50579 whole entry)": "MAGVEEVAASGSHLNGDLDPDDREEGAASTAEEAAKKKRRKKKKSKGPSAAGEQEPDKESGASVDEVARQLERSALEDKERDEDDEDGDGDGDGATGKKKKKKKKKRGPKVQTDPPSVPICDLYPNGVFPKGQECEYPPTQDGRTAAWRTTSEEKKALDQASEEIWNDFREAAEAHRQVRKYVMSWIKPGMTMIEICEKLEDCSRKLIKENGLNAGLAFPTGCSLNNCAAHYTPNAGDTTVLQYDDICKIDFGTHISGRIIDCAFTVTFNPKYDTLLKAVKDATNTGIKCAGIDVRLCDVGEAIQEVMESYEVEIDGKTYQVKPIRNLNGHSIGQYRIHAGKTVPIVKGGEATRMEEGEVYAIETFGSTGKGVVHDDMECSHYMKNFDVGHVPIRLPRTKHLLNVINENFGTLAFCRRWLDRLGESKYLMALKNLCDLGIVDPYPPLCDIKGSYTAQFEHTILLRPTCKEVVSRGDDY", "experiment": "MetAp2 enzymatic assay, L-Met-AMC substrate (Experimental Set-Up 1)", "assay_type": "biochemical", "description": "Quantitative MetAP2 activity assay by N-terminal cleavage of substrate 7-amino-4-methyl-courmarin was performed as follows: The activity of MetAP2 was measured using fluorescent peptide substrate L-Met-AMC (Santa Cruz Biotechnology, Inc, sc-207807) as described by Garrabrant et al. (Angiogenesis 7: 91-96, 2004). Briefly, the reaction (100 μl final) was initiated by adding 0.5 μg of MetAP2 or 5 μg HUVEC homogenate to reaction buffer containing 50 mM HEPES (pH 7.4), 100 mM NaCl, 0.1 mM CoCl2, 1 mg/ml PEG6000, and 250 μM L-Met-AMC substrate. The assay was prepared in black flat-bottomed 96-well microtiter plates and fluorescence was measured every 20 s over a period of 60 min at 25° C. using a microplate fluorometer (Bioteck, SynergyHT), with excitation and emission wavelengths set at 360 and 440 nm respectively. As a control the inhibition of the enzyme was obtained by incubating it with TNP-470 for 15 min before the addition of the substrate.\nThe inhibitory effect of the compounds were tested in MetAp2 enzymatic assay."}, "[1]": {"settings": "cited from earlier work"}, "[2]": {"test_system": "Choroidal Neovascularization (CNV)", "experiment": "Laser-induced CNV in mice", "assay_type": "in vivo, C57Bl/6J mice", "settings": "Eylea, in the given dose and time", "source_text": "Laser-induced CNV was generated by a previously described technique with some modifications. C57Bl/6J mice (6-8 weeks) were anesthetized by intraperitoneal injections of a mixture of 85% ketamine and 15% xylazine. A mixture of 0.5% tropicamide and 0.5% phenylephrine hydrochloride was applied to both eyes to dilate the pupils. Lesions were induced by a diode pumped solid state laser (0.1 s; spot size, 100 μm; power 120 mW) around the optic nerve through a slit lamp delivery system using a Nidek while a hand-held cover slide was used as a contact lens. Only lesions in which a subretinal bubble or focal serous detachment of the retina developed were used for the experiments. For this purpose, 4 burns were performed per eye while leaving a space around the optic disc. Intravitreal injections of the treatments were performed using a PLI-100 Pico-Injector following the laser procedure. After 7 days mice were euthanized and their eyes were removed and fixed in 4% paraformaldehyde for 60 min. The cornea and lens were removed, and the entire retina was carefully dissected from the eyecup Choroid.\nBlood vessels were labeled using a 1:200 dilution of isolectin IB4 conjugated with Alexa Fluor 488 or lectin-FITC. The eyecup was flat-mounted in an aqua-mount with the sclera facing down and the choroid facing up. […] The CNV area (presented in μm2) in choroidal flat mount was evaluated using ImageJ software […]"}}}
{"compound": "CO[C@@H]1[C@H](OC(=O)NC(=O)CCl)CC[C@]2(CO2)[C@H]1[C@@]1(C)O[C@@H]1CC=C(C)C", "note": "[AD-3201]", "values": [{"measurement": "inhibition of the catalytic activity of MetAp2", "setting": "MetAP2; 0.5 microM", "value": 75, "unit": "%"}, {"measurement": "inhibition of the catalytic activity of MetAp2", "setting": "MetAP2; 2.5 microM", "value": 97, "unit": "%"}]}
{"compound": "CO[C@@H]1[C@H](OC(=O)C23CC4(C)CC(C)(CC(C)(C4)C2)C3)CC[C@]2(CO2)[C@H]1[C@@]1(C)O[C@@H]1CC=C(C)C", "note": "[AD-3306, Fumagillol-3,5,7-trimethyladamantane-1-carboxylate]", "values": [{"measurement": "activity in inhibiting the catalytic activity of MetAp2 compared to TNP-470", "setting": "MetAP2", "value": "almost identical to TNP-470"}, {"measurement": "inhibitory effect in MetAp2 enzymatic assay (ranking among compounds)", "setting": "MetAP2", "value": "most active"}]}
{"compound": "CO[C@H]1C(C2(C)O[C@@H]2CC=C(C)C)[C@]2(CC[C@H]1OC(=O)NC(=O)CCl)CO2", "note": "(some centres unmarked) [TNP-470, O-chloroacetylcarbamoyl fumagillol]", "values": [{"measurement": "adverse side-effects", "setting": "[1]; in high doses", "value": "reversible neurotoxicity in some patients"}, {"measurement": "half-life in plasma", "setting": "[1]; intravenous formulation", "value": "minutes"}, {"measurement": "inhibition at 2.5 µM", "setting": "MetAP2; 2.5 microM, read-out: inhibition of the catalytic activity of MetAp2", "value": 95, "unit": "%"}]}
{"compound": "Eylea: the standard of care, as treatment for “wet” AMD [reference compound]", "values": [{"measurement": "effect on mouse laser induced CNV", "setting": "[2]", "value": 59, "unit": "%"}]}
